In PubChem BioAssay AID1259407 (Chemical Carcinogenesis Research Information System (CCRIS), 2018):
The source made the active and inactive calls. How the calls were made is not given here.

Tested on: CCRIS mutagenicity, Ames/micronucleus/aberration tests
Assay: CCRIS mutagenicity studies
[1] = Test System: AMES SALMONELLA TYPHIMURIUM, Strain/Indicator: TA98, Metabolic Activation: NONE, Method: PREINCUBATION

Measured: mutagenic call

C=CC(=O)OCC
inactive: End Point: IN VITRO CHROMOSOMAL ABERRATIONS, Test System: CHO-LB CELLS, Metabolic Activation: NONE inactive; negative | Test System: AMES SALMONELLA TYPHIMURIUM, Strain/Indicator: TA98, Metabolic Activation: HAMSTER, LIVER, S-9, AROCLOR 1254, Method: PREINCUBATION inactive; negative | [1] inactive; negative | Test System: AMES SALMONELLA TYPHIMURIUM, Strain/Indicator: TA98, Metabolic Activation: NONE, Method: STANDARD PLATE inactive; negative | Test System: AMES SALMONELLA TYPHIMURIUM, Strain/Indicator: TA98, Metabolic Activation: RAT, LIVER, S-9, AROCLOR 1254, Method: PREINCUBATION inactive; negative | Test System: AMES SALMONELLA TYPHIMURIUM, Strain/Indicator: TA98, Metabolic Activation: RAT, LIVER, S-9, AROCLOR 1254, Method: STANDARD PLATE inactive; negative | Test System: AMES SALMONELLA TYPHIMURIUM, Strain/Indicator: TA98, Metabolic Activation: RAT, LIVER, S-9, SODIUM PHENOBARBITAL, Method: STANDARD PLATE inactive; negative | Test System: AMES SALMONELLA TYPHIMURIUM, Strain/Indicator: TA100, Metabolic Activation: HAMSTER, LIVER, S-9, AROCLOR 1254, Method: PREINCUBATION inactive; negative | Test System: AMES SALMONELLA TYPHIMURIUM, Strain/Indicator: TA100, Metabolic Activation: NONE, Method: PREINCUBATION inactive; negative | Test System: AMES SALMONELLA TYPHIMURIUM, Strain/Indicator: TA100, Metabolic Activation: NONE, Method: STANDARD PLATE inactive; negative | Test System: AMES SALMONELLA TYPHIMURIUM, Strain/Indicator: TA100, Metabolic Activation: RAT, LIVER, S-9, AROCLOR 1254, Method: PREINCUBATION inactive; negative | Test System: AMES SALMONELLA TYPHIMURIUM, Strain/Indicator: TA100, Metabolic Activation: RAT, LIVER, S-9, AROCLOR 1254, Method: STANDARD PLATE inactive; negative | Test System: AMES SALMONELLA TYPHIMURIUM, Strain/Indicator: TA100, Metabolic Activation: RAT, LIVER, S-9, SODIUM PHENOBARBITAL, Method: STANDARD PLATE inactive; negative | Test System: AMES SALMONELLA TYPHIMURIUM, Strain/Indicator: TA1535, Metabolic Activation: HAMSTER, LIVER, S-9, AROCLOR 1254, Method: PREINCUBATION inactive; negative | Test System: AMES SALMONELLA TYPHIMURIUM, Strain/Indicator: TA1535, Metabolic Activation: NONE, Method: PREINCUBATION inactive; negative | Test System: AMES SALMONELLA TYPHIMURIUM, Strain/Indicator: TA1535, Metabolic Activation: NONE, Method: STANDARD PLATE inactive; negative | Test System: AMES SALMONELLA TYPHIMURIUM, Strain/Indicator: TA1535, Metabolic Activation: RAT, LIVER, S-9, AROCLOR 1254, Method: PREINCUBATION inactive; negative | Test System: AMES SALMONELLA TYPHIMURIUM, Strain/Indicator: TA1535, Metabolic Activation: RAT, LIVER, S-9, AROCLOR 1254, Method: STANDARD PLATE inactive; negative | Test System: AMES SALMONELLA TYPHIMURIUM, Strain/Indicator: TA1535, Metabolic Activation: RAT, LIVER, S-9, SODIUM PHENOBARBITAL, Method: STANDARD PLATE inactive; negative | Test System: AMES SALMONELLA TYPHIMURIUM, Strain/Indicator: TA1537, Metabolic Activation: HAMSTER, LIVER, S-9, AROCLOR 1254, Method: PREINCUBATION inactive; negative | Test System: AMES SALMONELLA TYPHIMURIUM, Strain/Indicator: TA1537, Metabolic Activation: NONE, Method: PREINCUBATION inactive; negative | Test System: AMES SALMONELLA TYPHIMURIUM, Strain/Indicator: TA1537, Metabolic Activation: NONE, Method: STANDARD PLATE inactive; negative | Test System: AMES SALMONELLA TYPHIMURIUM, Strain/Indicator: TA1537, Metabolic Activation: RAT, LIVER, S-9, AROCLOR 1254, Method: PREINCUBATION inactive; negative | Test System: AMES SALMONELLA TYPHIMURIUM, Strain/Indicator: TA1537, Metabolic Activation: RAT, LIVER, S-9, AROCLOR 1254, Method: STANDARD PLATE inactive; negative | Test System: AMES SALMONELLA TYPHIMURIUM, Strain/Indicator: TA1537, Metabolic Activation: RAT, LIVER, S-9, SODIUM PHENOBARBITAL, Method: STANDARD PLATE inactive; negative | Test System: AMES SALMONELLA TYPHIMURIUM, Strain/Indicator: TA1538, Metabolic Activation: NONE, Method: STANDARD PLATE inactive; negative | Test System: AMES SALMONELLA TYPHIMURIUM, Strain/Indicator: TA1538, Metabolic Activation: RAT, LIVER, S-9, AROCLOR 1254, Method: STANDARD PLATE inactive; negative | Test System: AMES SALMONELLA TYPHIMURIUM, Strain/Indicator: TA1538, Metabolic Activation: RAT, LIVER, S-9, SODIUM PHENOBARBITAL, Method: STANDARD PLATE inactive; negative | Test System: Ames Salmonella typhimurium, Strain/Indicator: YG7108pin3ERb5, Metabolic Activation: None, Method: Standard plate inactive; negative
active: End Point: IN VITRO CHROMOSOMAL ABERRATIONS, Test System: CHO-LB CELLS, Metabolic Activation: RAT, LIVER, S-9, AROCLOR 1254 active; positive | Test System: CHINESE HAMSTER OVARY, Strain/Indicator: CHO-K1-BH4 (HGPRT)/6-THIOGUANINE, Metabolic Activation: NONE, Method: SUSPENSION/PLATE active; positive | Test System: CHINESE HAMSTER OVARY, Strain/Indicator: CHO-K1-BH4 (HGPRT), Metabolic Activation: NONE, Method: MONOLAYER active; positive | Test System: CHINESE HAMSTER OVARY, Strain/Indicator: CHO-K1-BH4 (HGPRT), Metabolic Activation: NONE, Method: SUSPENSION/PLATE active; positive | Test System: MOUSE LYMPHOMA, Strain/Indicator: L5178Y (TK+/TK-), Metabolic Activation: RAT, LIVER, S-9, AROCLOR 1254, Method: SUSPENSION/PLATE active; positive. reevaluation of results: positive | Test System: MOUSE LYMPHOMA, Strain/Indicator: L5178Y (TK+/TK-), Metabolic Activation: RAT, LIVER, S-9, AROCLOR, Method: SUSPENSION/PLATE active; positive

O=[N+]([O-])c1cc(-c2ccc(O)c([N+](=O)[O-])c2)ccc1O
inactive: [1] inactive; negative

Cc1c2ccccc2c(C)c2c1c1c(c3ccccc32)N1
active: [1] active; positive
